Reference: the NIST ThermoML archive (doi:10.1021/je100131c)

How the values were obtained:
[1] = Adiabatic calorimetry
[2] = molar heat capacity at constant pressure; conditions: 101.33 kPa

CCCn1cc[n+](C)c1.N[C@@H](CCC(=O)O)C(=O)[O-]
Conditions | Glass transition temperature [°C]
[1] | -33

[2]
Conditions | molar heat capacity at constant pressure [J/K/mol]
86.07 K, Glass | 150.25
88.05 K, Glass | 152.63
90.01 K, Glass | 154.9
91.97 K, Glass | 157.5
93.95 K, Glass | 159.49
95.92 K, Glass | 162.14
97.89 K, Glass | 164.13
99.85 K, Glass | 166.66
102.59 K, Glass | 169.25
105.33 K, Glass | 173.04
107.28 K, Glass | 175.8
109.24 K, Glass | 177.98
111.23 K, Glass | 179.21
113.2 K, Glass | 181.07
115.14 K, Glass | 183.75
117.1 K, Glass | 185.58
119.09 K, Glass | 186.96
121.06 K, Glass | 188.82
123 K, Glass | 191.13
124.97 K, Glass | 193.29
126.97 K, Glass | 194.36
128.94 K, Glass | 196.26
130.9 K, Glass | 199.43
132.84 K, Glass | 200.78
134.79 K, Glass | 203.07
136.78 K, Glass | 204.43
138.75 K, Glass | 206.24
140.7 K, Glass | 207.69
142.65 K, Glass | 208.89
144.61 K, Glass | 211.05
146.6 K, Glass | 212.89
148.57 K, Glass | 215.15
150.53 K, Glass | 216.91
153.04 K, Glass | 219.16
155.56 K, Glass | 221.42
157.53 K, Glass | 223.77
159.49 K, Glass | 225.64
161.44 K, Glass | 227
163.38 K, Glass | 228.24
165.3 K, Glass | 230.3
167.27 K, Glass | 232.18
169.28 K, Glass | 234.1
171.28 K, Glass | 236.74
173.27 K, Glass | 237.97
175.25 K, Glass | 240.31
177.21 K, Glass | 242.87
179.17 K, Glass | 243.7
181.11 K, Glass | 245.51
183.05 K, Glass | 248.04
185.03 K, Glass | 250.2
187.05 K, Glass | 252.7
189.06 K, Glass | 255.28
191.06 K, Glass | 257.14
193.05 K, Glass | 259.68
195.03 K, Glass | 262.63
197.01 K, Glass | 264.18
198.97 K, Glass | 266.54
200.93 K, Glass | 268.59
203.31 K, Glass | 271.02
205.67 K, Glass | 273.69
207.65 K, Glass | 277.76
209.69 K, Glass | 281.69
211.73 K, Glass | 283.31
213.76 K, Glass | 284.6
215.8 K, Glass | 286.92
217.82 K, Glass | 290.11
219.85 K, Glass | 294.21
221.88 K, Glass | 296.62
223.91 K, Glass | 297.46
225.94 K, Glass | 299.66
227.97 K, Glass | 300.73
229.99 K, Glass | 302.48
231.96 K, Glass | 310.06
234 K, Glass | 323.45
236.07 K, Glass | 333.04
238.02 K, Glass | 358.09
239.86 K, Glass | 407.73
242.01 K, Glass | 462.82
244.24 K, Liquid | 471
246.18 K, Liquid | 472.35
248.12 K, Liquid | 473.61
250.04 K, Liquid | 475.54
251.97 K, Liquid | 476.41
253.9 K, Liquid | 477.37
255.89 K, Liquid | 478.45
257.87 K, Liquid | 480.19
259.86 K, Liquid | 481.42
261.91 K, Liquid | 483.73
263.96 K, Liquid | 485.28
266 K, Liquid | 486.86
268.04 K, Liquid | 487.89
270.07 K, Liquid | 489.67
272.09 K, Liquid | 491.51
274.12 K, Liquid | 493.23
276.13 K, Liquid | 495.7
278.15 K, Liquid | 497.67
280.16 K, Liquid | 498.94
282.16 K, Liquid | 501.05
284.17 K, Liquid | 503.38
286.16 K, Liquid | 505.39
288.12 K, Liquid | 507.35
290.06 K, Liquid | 509.26
292.08 K, Liquid | 511.23
294.05 K, Liquid | 513.1
296.01 K, Liquid | 514.91
297.97 K, Liquid | 516.83
299.93 K, Liquid | 518.67
301.88 K, Liquid | 520.07
303.82 K, Liquid | 521.96
305.77 K, Liquid | 523.25
307.7 K, Liquid | 524.77
309.64 K, Liquid | 526.25
311.57 K, Liquid | 527.31
313.5 K, Liquid | 528.82
315.43 K, Liquid | 530.52
317.41 K, Liquid | 531.97
319.47 K, Liquid | 533.47
321.52 K, Liquid | 534.99
323.57 K, Liquid | 536.53
325.61 K, Liquid | 538.93
327.65 K, Liquid | 539.74
329.68 K, Liquid | 541.83
331.71 K, Liquid | 543.17
333.73 K, Liquid | 544.98
335.75 K, Liquid | 546.87
337.76 K, Liquid | 549.25
339.77 K, Liquid | 550.76
341.77 K, Liquid | 553.01
343.77 K, Liquid | 554.52
345.76 K, Liquid | 557
347.75 K, Liquid | 559.26
349.74 K, Liquid | 561.22
351.73 K, Liquid | 563.15
353.72 K, Liquid | 565.12
355.7 K, Liquid | 566.91
357.68 K, Liquid | 568.06
